Measured values reported in patent US6476263B1, “Compounds for inhibiting β-amyloid peptide release and/or its synthesis” (Elan Pharmaceuticals, Inc., priority 1996, dated 2002).
Residues, ends and D or L forms follow the SMILES beside them. *: point of attachment. PhAc = O=C(Cc1ccccc1)*; Boc = CC(C)(C)OC(=O)*

| Structure (SMILES) | melting point |
| --- | --- |
| COC(=O)[C@H](CCCCNC(=O)OC(C)(C)C)NC(=O)[C@H](C)NC(=O)Cc1ccccc1 [Example 205, N-[N-(Phenylacetyl)-L-alaninyl]-Nε-(tert-butoxycarbonyl)-L-lysine Methyl Ester] (PhAc-Ala-Lys(Boc)-OMe) | 119 to 121 °C |
| COC(=O)[C@@H](NC(=O)[C@H](NC(=O)Cc1cc(F)cc(F)c1)c1cccs1)c1ccccc1 [Example 259, N-[N-(3,5-Difluorophenylacetyl)-(S)-2-amino-2-(thien-2-yl)acetyl]-L-phenylglycine Methyl Ester] | 230.8 °C |
| COC(=O)[C@H](Cc1ccccc1)NC(=O)[C@H](C)NC(=O)Cc1ccncc1 [Example 133, N-[N-(4-Pyridylacetyl)-L-alaninyl]-L-phenylalanine Methyl Ester] | 152 to 154 °C |
| CC(C)(C)OC(=O)[C@@H](NC(=O)[C@@H](NC(=O)CC1CC1)c1ccccc1)c1ccccc1 [Example 264, N-[N-(Cyclopropylacetyl)-L-phenylglycinyl]-L-phenylglycine tert-Butyl Ester] | 187.5 °C |
| CC(C)COC(=O)[C@H](C)NC(=O)[C@@H](NC(=O)[C@@H](NC(=O)CC(C)C)C(C)C)c1ccccc1 [Example 83, N-[N-[N-(Isovaleryl)-L-valinyl]-L-phenylglycinyl]-L-alanine iso-butyl Ester] | 217 to 221 °C |
| COC(=O)[C@H](Cc1ccccc1)NC(=O)[C@H](C)NC(=O)CC1CCCC1 [Example 68, N-[N-(Cyclopentylacetyl)-L-alaninyl]-L-phenylalanine Methyl Ester] | 137 to 139 °C |
| COC(=O)[C@H](Cc1ccccc1)NC(=O)[C@H](C)NC(=O)Cc1ccccc1 [Example 204, N-[N-(Phenylacetyl)-L-alaninyl]-L-phenylalanine Methyl Ester] | 148 to 149.5 °C |
| COC(=O)[C@@H](NC(=O)[C@@H](NC(=O)Cc1cc(F)cc(F)c1)c1ccccc1)c1ccccc1 [Example 199, N-[N-(3,5-Difluorophenylacetyl)-L-phenylglycinyl]-L-phenylglycine Methyl Ester] | 222.8 °C |
| C[C@H](NC(=O)CC1CC1)C(=O)N[C@H](C(=O)OC(C)(C)C)c1ccccc1 [Example 189, N-[N-(Cyclopropylacetyl)-L-alaninyl]-L-phenylglycine tert-Butyl Ester] | 105 to 107 °C |
| COC(=O)[C@@H](NC(=O)[C@@H](NC(=O)Cc1cc(F)cc(F)c1)c1ccsc1)c1ccccc1 [Example 258, N-[N-(3,5-Difluorophenylacetyl)-(S)-2-amino-2-(thien-3-yl)acetyl]-L-phenylglycine Methyl Ester] | 229.3 °C |
| CCOC(=O)[C@H](CO)NC(=O)[C@H](C)NC(=O)Cc1cccc([N+](=O)[O-])c1 [Example 117, N-[N-(3-Nitrophenylacetyl)-L-alaninyl]-L-serine Ethyl Ester] | 179 to 181 °C |
| COC(=O)[C@H](Cc1ccccc1)NC(=O)[C@H](C)NC(=O)Cc1ccccn1 [Example 132, N-[N-(2-Pyridylacetyl)-L-alaninyl]-L-phenylalanine Methyl Ester] | 137 to 139 °C |
| O=C(CC1CC1)N[C@H](C(=O)N[C@H](CO)c1ccccc1)c1ccccc1 [Example 246, N-[N-(Cyclopropaneacetyl)-L-phenylglycinyl]-L-phenylglycinol] | 202.5 °C |
| CCCCCC=CCCC(=O)N[C@@H](C)C(=O)N[C@@H](Cc1ccccc1)C(=O)OC [Example 12, N-[N-(Dec-4-enoyl)-L-alaninyl]-L-phenylalanine Methyl Ester] | 115.5 to 117.5 °C |
| O=C(Cc1cc(F)cc(F)c1)N[C@H](C(=O)N[C@H](CO)c1ccccc1)c1ccccc1 [Example 245, N-[N-(3,5-Difluorophenylacetyl)-L-phenylglycinyl]-L-phenylglycinol] | 231.4 °C |
| CCOC(=O)[C@H](C)NC(=O)[C@H](C)NC(=O)Cc1cc(F)cc(F)c1 [Example 85, N-[N-(3,5-Difluorophenylacetyl)-L-alaninyl]-L-alanine Ethyl Ester] | 197 to 199 °C |
| CC(C)C[C@H](NC(=O)[C@H](C)NC(=O)Cc1cc(F)cc(F)c1)C(=O)OC(C)(C)C [Example 40, N-[N-(3,5-Difluorophenylacetyl)-L-alaninyl]-L-leucine tert-Butyl Ester] | 128 °C |
| COC(=O)[C@H](C)NC(=O)[C@H](C)NC(=O)Cc1ccccc1 [Example 200, N-[N-(Phenylacetyl)-L-alaninyl]-L-alanine Methyl Ester] (HELM PEPTIDE1{[O=C(Cc1ccccc1)[*:2]].A.A.[CO[*:1]]}$$$$V2.0) | 140.5 to 142 °C |
| COC(=O)[C@@H](NC(=O)[C@H](Cc1ccccc1)NC(=O)Cc1cc(F)cc(F)c1)c1ccccc1 [Example 197, N-[N-(3,5-Difluorophenylacetyl)-L-phenylalaninyl]-L-phenylglycine Methyl Ester] | 188.3 °C |
| NC(C(=O)NC(=O)C(NC(=O)Cc1cc(F)cc(F)c1)c1ccccc1)c1ccccc1 (mixture of isomers) [Example 248, N-[N-(3,5-Difluorophenylacetyl)-D,L-phenylglycinyl]-D,L-phenylglycinamide] | 285.5 to 288.5 °C |

Next, values leading:

| melting point | Structure (SMILES) |
| --- | --- |
| 138 to 142 °C | C[C@H](NC(=O)Cc1cc(F)cc(F)c1)C(=O)N[C@@H](Cc1ccccc1)C(=O)OCCCBr [Example 38, N-[N-(3,5-Difluorophenylacetyl)-L-alaninyl]-L-phenylalanine 3-Bromopropyl Ester] |
| 128 to 130 °C | CCOC(=O)C(C)(NC(=O)[C@H](C)NC(=O)Cc1cc(F)cc(F)c1)c1ccccc1 (stereo partly drawn) [Example 123, Ethyl N-[N-(3,5-Difluorophenylacetyl)-L-alaninyl]-2-amino-2-phenylpropionate] |
| 176.4 °C | COC(=O)[C@@H](NC(=O)[C@@H](NC(=O)Cc1cc(F)cc(F)c1)C(C)(C)C)c1ccccc1 [Example 254, N-[N-(3,5-Difluorophenylacetyl)-L-tert-leucinyl]-L-phenylglycine Methyl Ester] |
| 158 to 160 °C | COC(=O)CNC(=O)[C@H](C)NC(=O)Cc1cc(F)cc(F)c1 [Example 28, N-[N-(3,5-Difluorophenylacetyl)-L-alaninyl]glycine Methyl Ester] |
| 260.3 to 264.3 °C | CC(C)C(NC(=O)Cc1cc(F)cc(F)c1)C(=O)NC(=O)C(N)c1ccccc1 (mixture of isomers) [Example 249, N-[N-(3,5-Difluorophenylacetyl)-D,L-valinyl]-D,L-phenylglycinamide] |
| 178.4 °C | COC(=O)[C@@H](NC(=O)[C@H](CC(C)C)NC(=O)Cc1cc(F)cc(F)c1)c1ccccc1 [Example 196, N-[N-(3,5-Difluorophenylacetyl)-L-leucinyl]-L-phenylglycine Methyl Ester] |
| 185 to 186 °C | COC(=O)C(NC(=O)[C@H](C)NC(=O)Cc1cc(F)cc(F)c1)c1csc2ccccc12 (stereo partly drawn) [Example 175, Methyl N-[N-(3,5-Difluorophenylacetyl)-L-alaninyl]-2-amino-2-(benzothiophen-3-yl)acetate] |
| 225 to 226.5 °C | COC(=O)[C@@H](NC(=O)[C@@H](NC(=O)Cc1cc(F)cc(F)c1)C1CC1)c1ccccc1 [Example 257, N-[N-(3,5-Difluorophenylacetyl)-(S)-2-amino-2-(cyclopropyl)acetyl]-L-phenylglycine Methyl Ester] |
| 226.5 °C | COC(=O)[C@@H](NC(=O)[C@@H](NC(=O)Cc1cc(F)cc(F)c1)C(C)C)c1ccccc1 [Example 194, N-[N-(3,5-Difluorophenylacetyl)-L-valinyl]-L-phenylglycine Methyl Ester] |
| 167.5 °C | C[C@H](NC(=O)Cc1cc(F)cc(F)c1)C(=O)NCC(=O)OCc1ccccc1 [Example 73, N-[N-(3,5-Difluorophenylacetyl)-L-alaninyl]glycine Benzyl Ester] |
| 117 to 118 °C | C[C@H](NC(=O)Cc1cc(F)cc(F)c1)C(=O)N[C@@H](C(=O)OC(C)(C)C)c1cccs1 [Example 179, tert-Butyl N-[N-(3,5-Difluorophenylacetyl)-L-alaninyl]-(S)-2-amino-2-(2-thienyl)acetate] |
| 37 to 40 °C | COC(=O)C1Cc2ccccc2CN1C(=O)[C@H](C)NC(=O)Cc1cc(F)cc(F)c1 (stereo partly drawn) [Example 32, Methyl 2-[N-(3,5-Difluorophenylacetyl)-L-alaninyl]-1,2,3,4-tetrahydroisoquinoline-3-carboxylate] |
| 154 to 155.2 °C | C[C@H](NC(=O)Cc1cc(F)cc(F)c1)C(=O)NCC(=O)OCCc1ccccc1 [Example 45, N-[N-(3,5-Difluorophenylacetyl)-L-alaninyl]glycine 2-Phenylethyl Ester] |
| 228.8 °C | CC[C@H](C)[C@H](NC(=O)Cc1cc(F)cc(F)c1)C(=O)N[C@H](C(=O)OC)c1ccccc1 [Example 255, N-[N-(3,5-Difluorophenylacetyl)-L-isoleucinyl]-L-phenylglycine Methyl Ester] |
| 153 to 170 °C | CCOC(=O)C(NC(=O)[C@H](C)NC(=O)Cc1cc(F)cc(F)c1)c1ccccc1F (stereo partly drawn) [Example 135, Ethyl N-[N-(3,5-Difluorophenylacetyl)-L-alaninyl]-2-amino-2-(2-fluorophenyl)acetate] |
| 189 to 190 °C | CCOC(=O)C(NC(=O)[C@H](C)NC(=O)Cc1cc(F)cc(F)c1)c1cc2ccccc2s1 (stereo partly drawn) [Example 174, Ethyl N-[N-(3,5-Difluorophenylacetyl)-L-alaninyl]-2-amino-2-(benzothiophen-2-yl)acetate] |
| 101 to 103 °C | COC(=O)[C@H](Cc1cccnc1)NC(=O)[C@H](C)NC(=O)Cc1cc(F)cc(F)c1 [Example 20, Methyl N-[N-(3,5-Difluorophenylacetyl)-L-alaninyl]-(S)-2-amino-3-(3-pyridyl)propionate] |
| 163 to 170 °C | COC(=O)C(NC(=O)[C@H](C)NC(=O)Cc1cc(F)cc(F)c1)c1cccc(OC)c1 (stereo partly drawn) [Example 63, Methyl N-[N-(3,5-Difluorophenylacetyl)-L-alaninyl]-2-amino-2-(3-methoxyphenyl)acetate] |
| 191 to 193 °C | COC(=O)[C@H](Cc1c[nH]c2ccccc12)NC(=O)[C@H](C)NC(=O)Cc1cc(F)cc(F)c1 [Example 106, N-[N-(3,5-Difluorophenylacetyl)-L-alaninyl]-L-tryptophan Methyl Ester] |
